Results: PubChem BioAssay AID1963984 (Molecular Pharmacology Branch, DTP, NCI, 2024)

System: 233499-124-R-J3-PDC spheroids with HUVEC/MSC, viability
Assay: Anticancer human tumor 233499-124-R-J3-PDC patient-derived colon adenocarcinoma cell line growth inhibition [PI3K]
Conditions: for IC50: curve of first compound; for viability, T/C: stronger effect = lower value
Outline: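 Combination activity was assessed by viability in multicellular tumor spheroids carrying HUVEC and MSC components. Agents were tested with PI3K inhibitors from a Cmax-based top dose (or 10 microM) downward in half-log increments.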

[1] = second compound 0.0316 µM, first compound 0.0316 µM
[2] = second compound 0.0316 µM, first compound 0.1 µM
[3] = second compound 0.0316 µM, first compound 0.316 µM
[4] = second compound 0.0316 µM, first compound 1 µM
[5] = second compound 0.0316 µM, first compound 3.16 µM
[6] = second compound 0.0316 µM, first compound 10 µM
[7] = second compound 0.1 µM, first compound 0.0316 µM
[8] = second compound 0.1 µM, first compound 0.1 µM
[9] = second compound 0.1 µM, first compound 0.316 µM
[10] = second compound 0.1 µM, first compound 1 µM
[11] = second compound 0.1 µM, first compound 3.16 µM
[12] = second compound 0.1 µM, first compound 10 µM
[13] = second compound 0.316 µM, first compound 0.0316 µM
[14] = second compound 0.316 µM, first compound 0.1 µM
[15] = second compound 0.316 µM, first compound 0.316 µM
[16] = second compound 0.316 µM, first compound 1 µM
[17] = second compound 0.316 µM, first compound 3.16 µM
[18] = second compound 0.316 µM, first compound 10 µM
[19] = second compound 1 µM, first compound 0.0316 µM
[20] = second compound 1 µM, first compound 0.1 µM
[21] = second compound 1 µM, first compound 0.316 µM
[22] = second compound 1 µM, first compound 1 µM
[23] = second compound 1 µM, first compound 3.16 µM
[24] = second compound 1 µM, first compound 10 µM
[25] = second compound 3.16 µM, first compound 0.0316 µM
[26] = second compound 3.16 µM, first compound 0.1 µM
[27] = second compound 3.16 µM, first compound 0.316 µM
[28] = second compound 3.16 µM, first compound 1 µM
[29] = second compound 3.16 µM, first compound 3.16 µM
[30] = second compound 3.16 µM, first compound 10 µM
[31] = second compound 10 µM, first compound 0.0316 µM
[32] = second compound 10 µM, first compound 0.1 µM
[33] = second compound 10 µM, first compound 0.316 µM
[34] = second compound 10 µM, first compound 1 µM
[35] = second compound 10 µM, first compound 3.16 µM
[36] = second compound 10 µM, first compound 10 µM
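Note: spheroids exposed to agents for seven days before readout.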
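Throughout, for viability, T/C: percent viability relative to DMSO vehicle control taken as 100%.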

C[C@@H](NC(=O)c1ncnc(N)c1Cl)c1ncc(C(=O)Nc2cc(C(F)(F)F)c(Cl)cn2)s1 + Cc1nc(NC(=O)N2CCCC2C(N)=O)sc1-c1ccnc(C(C)(C)C(F)(F)F)c1
IC50 (second compound 0.0316 µM): > 10 µM | IC50 (second compound 0.1 µM): > 10 µM | IC50 (second compound 0.316 µM): > 10 µM | IC50 (second compound 1 µM): 9.68 µM | IC50 (second compound 3.16 µM): 0.458 µM | IC50 (second compound 10 µM): < 0.0316 µM | viability, T/C [1]: 101% | viability, T/C [2]: 75.5% | viability, T/C [3]: 113% | viability, T/C [4]: 136% | viability, T/C [5]: 112% | viability, T/C [6]: 106% | viability, T/C [7]: 109% | viability, T/C [8]: 90.3% | viability, T/C [9]: 104% | viability, T/C [10]: 110% | viability, T/C [11]: 104% | viability, T/C [12]: 54.8% | viability, T/C [13]: 111% | viability, T/C [14]: 104% | viability, T/C [15]: 87.7% | viability, T/C [16]: 63.9% | viability, T/C [17]: 92.8% | viability, T/C [18]: 79.4% | viability, T/C [19]: 90.4% | viability, T/C [20]: 93.3% | viability, T/C [21]: 69% | viability, T/C [22]: 94.4% | viability, T/C [23]: 99.4% | viability, T/C [24]: 48.8% | viability, T/C [25]: 51.5% | viability, T/C [26]: 71.5% | viability, T/C [27]: 52% | viability, T/C [28]: 42.5% | viability, T/C [29]: 37.9% | viability, T/C [30]: 35.8% | viability, T/C [31]: 33.1% | viability, T/C [32]: 29.2% | viability, T/C [33]: 34.1% | viability, T/C [34]: 38% | viability, T/C [35]: 14.4% | viability, T/C [36]: 14%

Cn1ncc(Cl)c1-c1cc(C(=O)NC(CN)Cc2cccc(F)c2)sc1Cl (stereo unspecified) + Cc1nc(NC(=O)N2CCCC2C(N)=O)sc1-c1ccnc(C(C)(C)C(F)(F)F)c1
IC50 (second compound 0.0316 µM): 5.53 µM | IC50 (second compound 0.1 µM): 3.31 µM | IC50 (second compound 0.316 µM): 4.03 µM | IC50 (second compound 1 µM): 2.63 µM | IC50 (second compound 3.16 µM): 0.558 µM | IC50 (second compound 10 µM): < 0.0316 µM | viability, T/C [1]: 110% | viability, T/C [2]: 90.8% | viability, T/C [3]: 87.1% | viability, T/C [4]: 77.2% | viability, T/C [5]: 70% | viability, T/C [6]: 34.1% | viability, T/C [7]: 102% | viability, T/C [8]: 86.6% | viability, T/C [9]: 82.8% | viability, T/C [10]: 57.2% | viability, T/C [11]: 53.5% | viability, T/C [12]: 39.3% | viability, T/C [13]: 85.3% | viability, T/C [14]: 94% | viability, T/C [15]: 76.2% | viability, T/C [16]: 64.4% | viability, T/C [17]: 62.1% | viability, T/C [18]: 27.7% | viability, T/C [19]: 81.9% | viability, T/C [20]: 74.3% | viability, T/C [21]: 72.7% | viability, T/C [22]: 75.2% | viability, T/C [23]: 45.3% | viability, T/C [24]: 18.7% | viability, T/C [25]: 62% | viability, T/C [26]: 69.9% | viability, T/C [27]: 55.3% | viability, T/C [28]: 38.1% | viability, T/C [29]: 35.3% | viability, T/C [30]: 14.4% | viability, T/C [31]: 29.3% | viability, T/C [32]: 29.4% | viability, T/C [33]: 23% | viability, T/C [34]: 25.5% | viability, T/C [35]: 30% | viability, T/C [36]: 2.94%

Cn1ncnc1[C@H]1c2n[nH]c(=O)c3cc(F)cc(c23)N[C@@H]1c1ccc(F)cc1 + Cc1nc(NC(=O)N2CCCC2C(N)=O)sc1-c1ccnc(C(C)(C)C(F)(F)F)c1
IC50 (second compound 0.0316 µM): > 0.1 µM | IC50 (second compound 0.1 µM): > 0.1 µM | IC50 (second compound 0.316 µM): > 0.1 µM | IC50 (second compound 1 µM): > 0.1 µM | IC50 (second compound 3.16 µM): 0.00184 µM | IC50 (second compound 10 µM): < 0.000316 µM | viability, T/C (second compound 0.0316 µM, first compound 0.000316 µM): 101% | viability, T/C (second compound 0.0316 µM, first compound 0.001 µM): 97.2% | viability, T/C (second compound 0.0316 µM, first compound 0.00316 µM): 95.9% | viability, T/C (second compound 0.0316 µM, first compound 0.01 µM): 109% | viability, T/C [1]: 81.1% | viability, T/C [2]: 94.8% | viability, T/C (second compound 0.1 µM, first compound 0.000316 µM): 106% | viability, T/C (second compound 0.1 µM, first compound 0.001 µM): 77.2% | viability, T/C (second compound 0.1 µM, first compound 0.00316 µM): 85.2% | viability, T/C (second compound 0.1 µM, first compound 0.01 µM): 91.3% | viability, T/C [7]: 75.6% | viability, T/C [8]: 90.3% | viability, T/C (second compound 0.316 µM, first compound 0.000316 µM): 81.5% | viability, T/C (second compound 0.316 µM, first compound 0.001 µM): 89.5% | viability, T/C (second compound 0.316 µM, first compound 0.00316 µM): 85.3% | viability, T/C (second compound 0.316 µM, first compound 0.01 µM): 73.8% | viability, T/C [13]: 58.4% | viability, T/C [14]: 54.7% | viability, T/C (second compound 1 µM, first compound 0.000316 µM): 87.2% | viability, T/C (second compound 1 µM, first compound 0.001 µM): 65% | viability, T/C (second compound 1 µM, first compound 0.00316 µM): 50.3% | viability, T/C (second compound 1 µM, first compound 0.01 µM): 57.4% | viability, T/C [19]: 55.5% | viability, T/C [20]: 65% | viability, T/C (second compound 3.16 µM, first compound 0.000316 µM): 52.6% | viability, T/C (second compound 3.16 µM, first compound 0.001 µM): 43.5% | viability, T/C (second compound 3.16 µM, first compound 0.00316 µM): 61.8% | viability, T/C (second compound 3.16 µM, first compound 0.01 µM): 41% | viability, T/C [25]: 49.4% | viability, T/C [26]: 44.7% | viability, T/C (second compound 10 µM, first compound 0.000316 µM): 28.2% | viability, T/C (second compound 10 µM, first compound 0.001 µM): 30.7% | viability, T/C (second compound 10 µM, first compound 0.00316 µM): 37.6% | viability, T/C (second compound 10 µM, first compound 0.01 µM): 29.1% | viability, T/C [31]: 22.8% | viability, T/C [32]: 22.5%
